Laboratory results as given in patent US10597388B2, “Pyridazinone herbicides” (FMC CORPORATION, priority 2014, dated 2020).

Assays:
Format in all cases: in vivo
[1] = test system: waterhemp (common waterhemp, Amaranthus rudis); assay: Test C greenhouse herbicide test, pre- and postemergence
From the text: (§1) Seeds of plant species selected from blackgrass (Alopecurus myosuroides), ryegrass, Italian (Italian ryegrass, Lolium multiflorum), wheat (winter wheat, Triticum aestivum), galium (catchweed bedstraw, Galium aparine), corn (Zea mays), large crabgrass, large (large crabgrass, Digitaria sanguinalis), foxtail, giant (giant foxtail, Setaria faberii), johnsongrass (Sorghum halepense), lambsquarters (Chenopodium album), morningglory (Ipomoea coccinea), nutsedge, yellow (yellow nutsedge, Cyperus esculentus), pigweed (Amaranthus retroflexus), ragweed (common ragweed, Ambrosia elatior), soybean (Glycine max), barnyardgrass (Echinochloa crus-galli), oilseed rape (Brassica napus), waterhemp (common waterhemp, Amaranthus rudis), and velvetleaf (Abutilon theophrasti) were planted into a blend of loam soil and sand and treated preemergence with test chemicals formulated in a non-phytotoxic solvent mixture which included a surfactant.
(§2) At the same time, plants selected from these crop and weed species and also chickweed (common chickweed, Stellaria media), kochia (Kochia scoparia), and oat, wild (wild oat, Avena fatua), were planted in pots containing Redi-Earth® planting medium (Scotts Company, 14111 Scottslawn Road, Marysville, Ohio 43041) comprising spaghnum peat moss, vermiculite, wetting agent and starter nutrients and treated with postemergence applications of test chemicals formulated in the same manner. Plants ranged in height from 2 to 18 cm (1- to 4-leaf stage) for postemergence treatments. Treated plants and controls were maintained in a greenhouse for 13 to 15 d, after which time all species were compared to controls and visually evaluated. Plant response ratings, summarized in Table C, are based on a scale of 0 to 100 where 0 is no effect and 100 is complete control. A dash (-) response means no test result.

[2] = test system: barnyardgrass (Echinochloa crus-galli); assay: as above
From the text: as §1, §2

[3] = test system: pigweed (Amaranthus retroflexus); assay: as above
From the text: as §1, §2

[4] = test system: morningglory (Ipomoea coccinea); assay: as above
From the text: as §1, §2

[5] = test system: velvetleaf (Abutilon theophrasti); assay: as above
From the text: as §1, §2

[6] = test system: oilseed rape (Brassica napus); assay: as above
From the text: as §1, §2

[7] = test system: johnsongrass (Sorghum halepense); assay: as above
From the text: as §1, §2

corn (Zea mays) = assay: as above
From the text: as §1, §2

[8] = test system: galium (catchweed bedstraw, Galium aparine); assay: as above
From the text: as §1, §2

[9] = test system: blackgrass (Alopecurus myosuroides); assay: as above
From the text: as §1, §2

soybean (Glycine max) = assay: as above
From the text: as §1, §2

[10] = test system: crabgrass, large (large crabgrass, Digitaria sanguinalis); assay: as above
From the text: as §1, §2

[11] = test system: foxtail, giant (giant foxtail, Setaria faberii); assay: as above
From the text: as §1, §2

[12] = test system: wheat (winter wheat, Triticum aestivum); assay: as above
From the text: as §1, §2

[13] = test system: ragweed (common ragweed, Ambrosia elatior); assay: as above
From the text: as §1, §2

[14] = test system: oat, wild (wild oat, Avena fatua); assay: Test C greenhouse herbicide test, postemergence
Method in brief: (§3)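 Plants grown in potting mix of peat moss, vermiculite, wetting agent and starter nutrients were sprayed postemergence at 2 to 18 cm height (1- to 4-leaf stage). After 13 to 15 d in the greenhouse, injury was visually rated against untreated controls on a 0–100 scale (0 no effect, 100 complete control).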

kochia (Kochia scoparia) = assay: Test C greenhouse herbicide test, postemergence
Method in brief: as §3

[15] = Postemergence, 31 g ai/ha, 0 to 100 scale (0 no effect, 100 complete control)
[16] = Postemergence, 125 g ai/ha, scale 0 to 100, 0 is no effect, 100 is complete control
[17] = Postemergence, 250 g ai/ha, scale 0 to 100, 0 no effect, 100 complete control, 13 to 15 d
[18] = Preemergence, 62 g ai/ha, scale 0 to 100, 0 is no effect, 100 is complete control
[19] = Preemergence, 125 g ai/ha, scale 0 to 100, 0 is no effect, 100 is complete control
[20] = Preemergence, 250 g ai/ha, scale 0 to 100 (0 no effect, 100 complete control)
[21] = postemergence, 62 g ai/ha, scale 0 to 100, 0 no effect, 100 complete control
[22] = Preemergence, 31 g ai/ha, scale 0 to 100, 0 is no effect, 100 is complete control

Structure (SMILES): CC(=O)Oc1c(C)nn(C)c(=O)c1-c1c(C)sc2ccc(C)cc12 [Compound 25]
- Waterhemp plant response rating [1, 15]: 75
- Plant response rating, Waterhemp [1, 16]: 95
- Plant response rating, Waterhemp [1, 17]: 98
- Plant response rating, Waterhemp [1, 18]: 100
- Plant response rating, Waterhemp [1, 19]: 100
- Waterhemp plant response rating [1, 20]: 100
- Waterhemp plant response rating [1, 21]: 95
- Barnyardgrass plant response rating [2, 15]: 15
- Plant response rating, Barnyardgrass [2, 16]: 20
- Plant response rating, Barnyardgrass [2, 17]: 25
- Plant response rating, Barnyardgrass [2, 22]: 0
- Plant response rating, Barnyardgrass [2, 18]: 30
- Plant response rating, Barnyardgrass [2, 19]: 70
- Barnyardgrass plant response rating [2, 20]: 85
- Barnyardgrass plant response rating [2, 21]: 20
- Pigweed plant response rating [3, 15]: 90
- Plant response rating, Pigweed [3, 16]: 95
- Plant response rating, Pigweed [3, 17]: 98
- Plant response rating, Pigweed [3, 22]: 100
- Plant response rating, Pigweed [3, 18]: 100
- Plant response rating, Pigweed [3, 19]: 100
- Pigweed plant response rating [3, 20]: 100
- Pigweed plant response rating [3, 21]: 90
- Morningglory plant response rating [4, 15]: 100
- Plant response rating, Morningglory [4, 16]: 100
- Plant response rating, Morningglory [4, 17]: 100
- Plant response rating, Morningglory [4, 22]: 85
- Plant response rating, Morningglory [4, 18]: 95
- Plant response rating, Morningglory [4, 19]: 95
- Morningglory plant response rating [4, 20]: 100
- Morningglory plant response rating [4, 21]: 100
- Velvetleaf plant response rating [5, 15]: 70
- Plant response rating, Velvetleaf [5, 16]: 85
- Plant response rating, Velvetleaf [5, 17]: 98
- Plant response rating, Velvetleaf [5, 18]: 85
- Plant response rating, Velvetleaf [5, 19]: 90
- Velvetleaf plant response rating [5, 20]: 98
- Velvetleaf plant response rating [5, 21]: 80
- Oilseed Rape plant response rating [6, 15]: 0
- Plant response rating, Oilseed Rape [6, 16]: 20
- Plant response rating, Oilseed Rape [6, 17]: 5
- Plant response rating, Oilseed Rape [6, 22]: 0
- Plant response rating, Oilseed Rape [6, 18]: 0
- Plant response rating, Oilseed Rape [6, 19]: 5
- Oilseed Rape plant response rating [6, 20]: 35
- Oilseed Rape plant response rating [6, 21]: 0
- Johnsongrass plant response rating [7, 15]: 0
- Plant response rating, Johnsongrass [7, 16]: 5
- Plant response rating, Johnsongrass [7, 17]: 10
- Plant response rating, Johnsongrass [7, 22]: 0
- Plant response rating, Johnsongrass [7, 18]: 0
- Plant response rating, Johnsongrass [7, 19]: 5
- Johnsongrass plant response rating [7, 20]: 20
- Johnsongrass plant response rating [7, 21]: 5
- Corn plant response rating (corn (Zea mays); [15]): 5
- Plant response rating, Corn (corn (Zea mays); [16]): 5
- Plant response rating, Corn (corn (Zea mays); [17]): 10
- Plant response rating, Corn (corn (Zea mays); [22]): 0
- Plant response rating, Corn (corn (Zea mays); [18]): 0
- Plant response rating, Corn (corn (Zea mays); [19]): 0
- Corn plant response rating (corn (Zea mays); [20]): 10
- Corn plant response rating (corn (Zea mays); [21]): 5
- Galium plant response rating [8, 15]: 90
- Plant response rating, Galium [8, 16]: 100
- Plant response rating, Galium [8, 17]: 95
- Plant response rating, Galium [8, 22]: 90
- Plant response rating, Galium [8, 18]: 95
- Plant response rating, Galium [8, 19]: 95
- Galium plant response rating [8, 20]: 98
- Galium plant response rating [8, 21]: 95
- Blackgrass plant response rating [9, 15]: 30
- Plant response rating, Blackgrass [9, 16]: 60
- Plant response rating, Blackgrass [9, 17]: 80
- Plant response rating, Blackgrass [9, 22]: 85
- Plant response rating, Blackgrass [9, 18]: 85
- Plant response rating, Blackgrass [9, 19]: 90
- Blackgrass plant response rating [9, 20]: 90
- Blackgrass plant response rating [9, 21]: 55
- Soybean plant response rating (soybean (Glycine max); [15]): 0
- Plant response rating, Soybean (soybean (Glycine max); [16]): 10
- Plant response rating, Soybean (soybean (Glycine max); [17]): 10
- Plant response rating, Soybean (soybean (Glycine max); [18]): 0
- Plant response rating, Soybean (soybean (Glycine max); [19]): 0
- Soybean plant response rating (soybean (Glycine max); [20]): 5
- Soybean plant response rating (soybean (Glycine max); [21]): 0
- Crabgrass, Large plant response rating [10, 15]: 5
- Plant response rating, Crabgrass, Large [10, 16]: 20
- Plant response rating, Crabgrass, Large [10, 17]: 20
- Plant response rating, Crabgrass, Large [10, 22]: 70
- Plant response rating, Crabgrass, Large [10, 18]: 75
- Plant response rating, Crabgrass, Large [10, 19]: 95
- Crabgrass, Large plant response rating [10, 20]: 90
- Crabgrass, Large plant response rating [10, 21]: 15
- Foxtail, Giant plant response rating [11, 15]: 35
- Plant response rating, Foxtail, Giant [11, 16]: 70
- Plant response rating, Foxtail, Giant [11, 17]: 85
- Plant response rating, Foxtail, Giant [11, 22]: 75
- Plant response rating, Foxtail, Giant [11, 18]: 85
- Plant response rating, Foxtail, Giant [11, 19]: 90
- Foxtail, Giant plant response rating [11, 20]: 100
- Foxtail, Giant plant response rating [11, 21]: 35
- Wheat plant response rating [12, 15]: 0
- Plant response rating, Wheat [12, 16]: 0
- Plant response rating, Wheat [12, 17]: 5
- Plant response rating, Wheat [12, 18]: 0
- Plant response rating, Wheat [12, 19]: 0
- Wheat plant response rating [12, 20]: 5
- Wheat plant response rating [12, 21]: 0
- Ragweed plant response rating [13, 15]: 90
- Plant response rating, Ragweed [13, 16]: 95
- Plant response rating, Ragweed [13, 17]: 95
- Plant response rating, Ragweed [13, 22]: 80
- Plant response rating, Ragweed [13, 18]: 95
- Plant response rating, Ragweed [13, 19]: 98
- Ragweed plant response rating [13, 20]: 95
- Ragweed plant response rating [13, 21]: 85
- Oat, Wild plant response rating [14, 15]: 60
- Plant response rating, Oat, Wild [14, 16]: 90
- Plant response rating, Oat, Wild [14, 17]: 95
- Oat, Wild plant response rating [14, 21]: 70
- Kochia plant response rating (kochia (Kochia scoparia); [15]): 95
- Plant response rating, Kochia (kochia (Kochia scoparia); [16]): 100
- Plant response rating, Kochia (kochia (Kochia scoparia); [17]): 100
- Kochia plant response rating (kochia (Kochia scoparia); [21]): 95
